The results in this text go back to ChEMBL document CHEMBL1201862, “PubChem BioAssay data set” (2004).

Test systems include HCC 2998; SW-620; MDA-N; SN12C; ACHN; HOP-62; A549; HCT-15; SK-OV-3; M14; SNB-19; MDA-MB-231; NCI-H522; NCI/ADR-RES; HL-60; HCT-116; SF-268; RXF 393; PC-3; CAKI-1.
Holding throughout (experiment): NCI anticancer screen, dose series, 48 h

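Interpolation was linear, between the two tested concentrations surrounding the appropriate level; five concentrations were tested over 48 hours in 96-well plates. Here, GI50 denotes the concentration required for 50% inhibition of growth.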 Active and inactive are the calls of the source. Rule as the data show it: active = GI50 up to about 1.1 µM and inactive = higher.

Regarding `NC(=O)Nc1n[nH]c(-c2ccccc2)n1`, the GI50 in the experiment with HCC 2998 was > 100 µM (inactive); in the experiment on SW-620, > 100 µM (inactive); in the experiment on MDA-N, > 100 µM (inactive); in the experiment on SN12C, > 100 µM (inactive); in the experiment with ACHN it was > 100 µM (inactive); in the experiment on HOP-62, 54.1 µM (inactive). The GI50 in the experiment on A549 was > 100 µM (inactive); with HCT-15, greater than 100 µM; in the experiment on SK-OV-3, 1.79 µM (inactive); in the experiment on M14 it was > 100 µM (inactive); in the experiment with SNB-19 it was > 100 µM (inactive); with MDA-MB-231 it was > 100 µM (inactive). The GI50 in the experiment with NCI-H522, with NCI/ADR-RES, in the experiment on HL-60, with HCT-116, in the experiment on SF-268 and in the experiment on RXF 393 was > 100 µM (inactive) in each case. Also, the GI50 in the experiment with PC-3 and in the experiment on CAKI-1 was > 100 µM (inactive) throughout.

Regarding `NC(=O)C1=C(O)C[C@@H]2CC3Cc4cccc(O)c4C(=O)C3=C(O)[C@]2(O)C1=O` (stereo not given in full), the GI50 in the experiment with HCC 2998 was 3.1 µM (inactive); in the experiment on SW-620 it was 3.57 µM (inactive); in the experiment with MDA-N it was 2.9 µM (inactive); with SN12C, 3.01 µM (inactive); in the experiment on ACHN, 1.07 µM (active); in the experiment on HOP-62, 3.31 µM (inactive). The GI50 with A549 is 0.592 µM (active); in the experiment with HCT-15 it was 0.479 µM; in the experiment on SK-OV-3, 3.69 µM (inactive); in the experiment on M14 it was 1.84 µM (inactive); in the experiment with SNB-19, 1.88 µM (inactive); in the experiment with MDA-MB-231, 2.78 µM (inactive). Moreover, the GI50 is 1.89 µM (inactive) with NCI-H522; 3.24 µM (inactive) with NCI/ADR-RES; 2.83 µM (inactive) with HL-60; 1.8 µM (inactive) in the experiment with HCT-116; 2.02 µM (inactive) with SF-268; 1.51 µM (inactive) with RXF 393. In addition, the GI50 in the experiment with PC-3 is 1.8 µM (inactive); with CAKI-1, 10.6 µM (inactive).

As for `CC(Oc1ccc(Cl)cc1Cl)C(=O)NN1C(=O)CSC1c1ccccc1` (stereo not given), the GI50 was > 100 µM (inactive) with HCC 2998; > 100 µM (inactive) in the experiment on SW-620; > 100 µM (inactive) with MDA-N; 69.2 µM (inactive) with SN12C; 68.5 µM (inactive) with ACHN; 47.5 µM (inactive) with HOP-62. In addition, the GI50 in the experiment with A549 is 39.3 µM (inactive); in the experiment on HCT-15, greater than 100 µM; with SK-OV-3 it was 55.8 µM (inactive); with M14, 54.2 µM (inactive); with SNB-19, 47.6 µM (inactive); with MDA-MB-231, 37.8 µM (inactive). The GI50 was 56.2 µM (inactive) in the experiment on NCI-H522; 86.3 µM (inactive) in the experiment on NCI/ADR-RES; 27.3 µM (inactive) with HL-60; 45.7 µM (inactive) in the experiment with HCT-116; 60.5 µM (inactive) in the experiment on SF-268; 54.7 µM (inactive) with RXF 393. In addition, the GI50 with PC-3 was 32.4 µM (inactive); in the experiment on CAKI-1 it was 20.4 µM (inactive).

On to `CN(C(=O)CC(=O)CP(=O)(c1ccccc1)c1ccccc1)c1ccccc1`, for which the GI50 with HCC 2998, with SW-620, in the experiment on MDA-N, in the experiment with SN12C, in the experiment with ACHN and in the experiment on HOP-62 was > 100 µM (inactive) each time. Also, the GI50 in the experiment on A549 was > 100 µM (inactive); with HCT-15, greater than 100 µM; with SK-OV-3, > 100 µM (inactive); with M14 it was > 100 µM (inactive); in the experiment on SNB-19 it was > 100 µM (inactive); with MDA-MB-231 it was > 100 µM (inactive). For the same molecule, the GI50 in the experiment with NCI-H522, in the experiment on NCI/ADR-RES, in the experiment on HL-60, with HCT-116, in the experiment with SF-268 and in the experiment with RXF 393 was > 100 µM (inactive) each time. For the same molecule, the GI50 in the experiment on PC-3 and in the experiment on CAKI-1 was > 100 µM (inactive) throughout.

Take `CCCCNC(=O)c1cc2c(cc1Cl)Sc1nccn1S2(=O)=O`: the GI50 was > 100 µM (inactive) in the experiment on HCC 2998; > 100 µM (inactive) in the experiment with SW-620; 61.4 µM (inactive) in the experiment on MDA-N; > 100 µM (inactive) in the experiment with SN12C; 82 µM (inactive) in the experiment on ACHN; 24.3 µM (inactive) in the experiment with HOP-62. In addition, the GI50 is > 100 µM (inactive) in the experiment with A549; 92.9 µM in the experiment with HCT-15; > 100 µM (inactive) with SK-OV-3; > 100 µM (inactive) in the experiment on M14; > 100 µM (inactive) in the experiment on SNB-19; > 100 µM (inactive) with MDA-MB-231. The GI50 with NCI-H522 was 51.8 µM (inactive); with NCI/ADR-RES it was 79.6 µM (inactive); with HL-60 it was 41.3 µM (inactive); in the experiment with HCT-116 it was 31 µM (inactive); in the experiment with SF-268, > 100 µM (inactive); in the experiment on RXF 393, 95.9 µM (inactive). The GI50 in the experiment with PC-3 is 55.2 µM (inactive); with CAKI-1 it was 18.7 µM (inactive).

Turning to `COC1=CC(=O)c2c(ccc3ncnc(N)c23)C1=O`, the GI50 was 6.03 µM (inactive) with HCC 2998; 1.93 µM (inactive) in the experiment with SW-620; 0.288 µM (active) in the experiment with MDA-N; 1.87 µM (inactive) in the experiment with SN12C; 1.57 µM (inactive) with ACHN; 3.56 µM (inactive) in the experiment with HOP-62. The GI50 was 4.05 µM (inactive) in the experiment with A549; 1.99 µM with HCT-15; 6.28 µM (inactive) with SK-OV-3; 1.88 µM (inactive) with M14; 2.38 µM (inactive) in the experiment with SNB-19; 1.19 µM (inactive) in the experiment on MDA-MB-231. Besides, the GI50 was 2.42 µM (inactive) in the experiment on NCI-H522; 2.31 µM (inactive) in the experiment with NCI/ADR-RES; 0.57 µM (active) in the experiment with HL-60; 1.77 µM (inactive) in the experiment with HCT-116; 2.47 µM (inactive) with SF-268; 1.79 µM (inactive) in the experiment on RXF 393. The results for the GI50 in the experiment on PC-3 and in the experiment on CAKI-1 were 2.32 µM (inactive) and 1.36 µM (inactive), respectively.

On to `CCOC(=O)C(NC(=O)CC)(Nc1ccc(F)c(Cl)c1)C(F)(F)F` (stereo not given), for which the GI50 is > 100 µM (inactive) with HCC 2998; > 100 µM (inactive) with SW-620; > 100 µM (inactive) with MDA-N; > 100 µM (inactive) in the experiment with SN12C; > 55.8 µM (inactive) with ACHN; > 100 µM (inactive) with HOP-62. Moreover, the GI50 in the experiment on A549 was > 100 µM (inactive); in the experiment on HCT-15 it was greater than 83.4 µM; in the experiment on SK-OV-3, > 100 µM (inactive); with M14, 40.5 µM (inactive); in the experiment with SNB-19 it was > 100 µM (inactive); with MDA-MB-231, > 100 µM (inactive). Besides, the GI50 in the experiment with NCI-H522 was > 100 µM (inactive); in the experiment on NCI/ADR-RES, 78.2 µM (inactive); in the experiment with HL-60, > 36.2 µM (inactive); in the experiment on HCT-116 it was > 100 µM (inactive); in the experiment with SF-268 it was > 100 µM (inactive); with RXF 393, > 100 µM (inactive). Moreover, the values for the GI50 in the experiment on PC-3 and in the experiment on CAKI-1 were > 64.1 µM (inactive) and > 100 µM (inactive), respectively.

As to `C#CC(O)/C=C/CCCCCCC#CC/C=C\CC#CCCCCCCCCC(O)C#C` (stereo not given), the GI50 is 3.63 µM (inactive) with HCC 2998; 3.5 µM (inactive) in the experiment with SW-620; 1.99 µM (inactive) with MDA-N; 1.99 µM (inactive) in the experiment with SN12C; 12.2 µM (inactive) in the experiment on ACHN; 4.27 µM (inactive) in the experiment with HOP-62. In addition, the GI50 was 8.43 µM (inactive) with A549; 3.27 µM in the experiment with HCT-15; 17.6 µM (inactive) in the experiment with SK-OV-3; 1.11 µM (active) with M14; 20 µM (inactive) in the experiment with SNB-19; 3.32 µM (inactive) in the experiment on MDA-MB-231. Also, the GI50 with NCI-H522 was 0.174 µM (active); in the experiment with NCI/ADR-RES, 3.39 µM (inactive); in the experiment with HL-60, 1.74 µM (inactive); in the experiment on HCT-116, 2.28 µM (inactive); with SF-268, 9.59 µM (inactive); in the experiment on RXF 393 it was 14.6 µM (inactive). The GI50 in the experiment with PC-3 is 14.3 µM (inactive); with CAKI-1, 4.29 µM (inactive).

With `C/C=C(\C)c1cc(=O)c2c(C)cc3c(c2o1)C(=O)c1c(O)c(C2CC(C)(N(C)C)C(OC(C)=O)C(C)O2)cc(C2CC(N(C)C)C(O)C(C)O2)c1C3=O` (stereo not given), the GI50 is 0.0589 µM (active) in the experiment on HCC 2998; 0.532 µM (active) in the experiment with SW-620; 1.18 µM (inactive) with MDA-N; 0.817 µM (active) in the experiment with SN12C; 0.155 µM (active) with ACHN; 0.891 µM (active) with HOP-62. For the same molecule, the GI50 was 0.41 µM (active) in the experiment with A549; 1.27 µM in the experiment with HCT-15; 1.95 µM (inactive) with SK-OV-3; 0.748 µM (active) with M14; 1.52 µM (inactive) with SNB-19; 1.14 µM (inactive) in the experiment with MDA-MB-231. Moreover, the GI50 was 0.172 µM (active) with NCI-H522; 1.41 µM (inactive) in the experiment with NCI/ADR-RES; 0.438 µM (active) in the experiment with HL-60; 0.185 µM (active) in the experiment with HCT-116; 0.655 µM (active) in the experiment with SF-268; 0.505 µM (active) in the experiment on RXF 393. Further, the GI50 in the experiment on PC-3 was 1.35 µM (inactive); in the experiment with CAKI-1 it was 0.265 µM (active).

For the molecule `COC(=O)CNC(=O)CSc1nnc(COc2ccc(Cl)cc2)n1-c1ccccc1`, the GI50 in the experiment on HCC 2998 is 25.3 µM (inactive); in the experiment with SW-620 it was 43.6 µM (inactive); with MDA-N it was 19.2 µM (inactive); with SN12C, 19.8 µM (inactive); in the experiment with ACHN, 24 µM (inactive); in the experiment on HOP-62 it was > 100 µM (inactive). For the same molecule, the GI50 in the experiment with A549 was > 100 µM (inactive); with HCT-15, greater than 100 µM; with SK-OV-3, > 100 µM (inactive); with M14 it was 37.3 µM (inactive); in the experiment on SNB-19 it was > 100 µM (inactive); in the experiment with MDA-MB-231, 20.5 µM (inactive). Further, the GI50 was 15.3 µM (inactive) with NCI-H522; > 100 µM (inactive) in the experiment on NCI/ADR-RES; 30.1 µM (inactive) with HL-60; 94.4 µM (inactive) in the experiment on HCT-116; 22.2 µM (inactive) with SF-268; 23.1 µM (inactive) in the experiment with RXF 393. The GI50 is 24 µM (inactive) with PC-3 and 16.9 µM (inactive) in the experiment with CAKI-1.
